Source: the supplement of paper PMC8149375

Tests used:
Details in all cases: treatment: drug alone; 5 days
ACHN [1] = assay: GI50, drug alone; higher = less potent
Experimental: (§1)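 Primary HTS: 8 RCC cell lines treated with 8 doses (up to 10 uM) of each library drug alone for 5 days; viability read by CellTiter-Glo and normalised to DMSO. GI50 was fitted with XLfit (4-parameter), AUC is the area under the dose-response curve, and minimum viability is the lowest fraction of DMSO viability across doses.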

SN12C [2] = assay: GI50, drug alone; higher = less potent
Experimental: as §1

TK-10 [3] = assay: GI50, drug alone; higher = less potent
Experimental: as §1

UO-31 [4] = assay: GI50, drug alone; higher = less potent
Experimental: as §1

786-O [5] = assay: GI50, drug alone; higher = less potent
Experimental: as §1

A498 [6] = assay: GI50, drug alone; higher = less potent
Experimental: as §1

769-P [7] = assay: GI50, drug alone; higher = less potent
Experimental: as §1

CAKI-1 [8] = assay: GI50, drug alone; higher = less potent
Experimental: as §1

ACHN [9] = assay: AUC of dose-response viability curve, drug alone (arbitrary (AUC of normalised viability)); higher = less growth inhibition
Experimental: as §1

SN12C [10] = assay: as above
Experimental: as §1

TK-10 [11] = assay: as above
Experimental: as §1

UO-31 [12] = assay: as above
Experimental: as §1

786-O [13] = assay: as above
Experimental: as §1

A498 [14] = assay: as above
Experimental: as §1

769-P [15] = assay: as above
Experimental: as §1

CAKI-1 [16] = assay: as above
Experimental: as §1

ACHN [17] = assay: minimum viability across doses, drug alone, relative to DMSO (fraction); higher = less growth inhibition
Experimental: as §1

SN12C [18] = assay: as above
Experimental: as §1

TK-10 [19] = assay: as above
Experimental: as §1

UO-31 [20] = assay: as above
Experimental: as §1

786-O [21] = assay: as above
Experimental: as §1

A498 [22] = assay: as above
Experimental: as §1

769-P [23] = assay: as above
Experimental: as §1

CAKI-1 [24] = assay: as above
Experimental: as §1

Row | Structure (SMILES) | GI50, drug alone (ACHN [1]) | GI50, drug alone (SN12C [2]) | GI50, drug alone (TK-10 [3]) | GI50, drug alone (UO-31 [4]) | GI50, drug alone (786-O [5]) | GI50, drug alone (A498 [6]) | GI50, drug alone (769-P [7]) | GI50, drug alone (CAKI-1 [8]) | AUC of dose-response viability curve (ACHN [9]) | AUC of dose-response viability curve (SN12C [10]) | AUC of dose-response viability curve (TK-10 [11]) | AUC of dose-response viability curve (UO-31 [12]) | AUC of dose-response viability curve (786-O [13]) | AUC of dose-response viability curve (A498 [14]) | AUC of dose-response viability curve (769-P [15]) | AUC of dose-response viability curve (CAKI-1 [16]) | minimum viability across doses (ACHN [17]) | minimum viability across doses (SN12C [18]) | minimum viability across doses (TK-10 [19]) | minimum viability across doses (UO-31 [20]) | minimum viability across doses (786-O [21]) | minimum viability across doses (A498 [22]) | minimum viability across doses (769-P [23]) | minimum viability across doses (CAKI-1 [24])
1 | COc1ccc2c(OCc3nnc4ccc(-c5ccccc5)nn34)ccnc2c1 [AMG-208] | > 10000 nM | > 10000 nM | > 10000 nM | > 10000 nM | > 10000 nM | > 10000 nM | > 10000 nM | > 10000 nM | 3.47 | 3.4 | 3.11 | 4.94 | 3.53 | 4.38 | 3.41 | 2.66 | 0.888 | 0.912 | 0.804 | 1.25 | 0.869 | 1.15 | 0.879 | 0.678
2 | O=C1NC(=O)[C@@H](c2cn3c4c(cccc24)CCC3)[C@@H]1c1c[nH]c2ccccc12 [ARQ 197 (Tivantinib)] | 1540 nM | 2170 nM | 2880 nM | 1310 nM | 424 nM | 1150 nM | 1550 nM | 1060 nM | 2.63 | 2.86 | 2.77 | 3.27 | 2.06 | 3 | 2.55 | 2.54 | 0.144 | 0.251 | 0.326 | 0.0233 | 0.00526 | 0.121 | 0.0795 | 0.201
3 | C=CC(=O)Nc1ccc2ncnc(Nc3ccc(OCc4cccc(F)c4)c(Cl)c3)c2c1.Cc1ccc(S(=O)(=O)O)cc1 [AST-1306] | 3110 nM | 4970 nM | 884 nM | > 10000 nM | 2380 nM | > 10000 nM | 1720 nM | 3350 nM | 2.9 | 3.03 | 2.33 | 4.13 | 2.59 | 3.99 | 2.61 | 2.76 | 0.315 | 0.188 | 0.109 | 1.05 | 0.0947 | 0.922 | 0.048 | 0.174
4 | Cc1cc2c(C(C)C)c(O)c(O)c(C=O)c2c(O)c1-c1c(C)cc2c(C(C)C)c(O)c(O)c(C=O)c2c1O [AT101] | 5950 nM | > 10000 nM | > 10000 nM | > 10000 nM | > 10000 nM | > 10000 nM | > 10000 nM | 6050 nM | 3.02 | 3.2 | 2.36 | 3.8 | 1.66 | 3.74 | 3.66 | 3.35 | 0.2 | 0.741 | 0.542 | 0.778 | 0.212 | 0.836 | 0.779 | 0.121
5 | O=C(NC1CCNCC1)c1n[nH]cc1NC(=O)c1c(Cl)cccc1Cl [AT7519] | 946 nM | 431 nM | 1040 nM | 415 nM | 375 nM | 455 nM | 1910 nM | 900 nM | 2.35 | 2.14 | 2.32 | 3.04 | 2.23 | 2.45 | 2.78 | 2.23 | 0.00881 | 0.0108 | 0.182 | 0.00638 | 0.00447 | 0.00986 | 0.0237 | 0.0613
6 | Clc1ccc(C2(c3ccc(-c4cn[nH]c4)cc3)CCNCC2)cc1 [AT7867] | 2570 nM | 5460 nM | 3730 nM | 249 nM | 1110 nM | 7630 nM | 6560 nM | 4090 nM | 2.89 | 3.13 | 2.84 | 2.21 | 2.05 | 3.49 | 3.02 | 2.8 | 0.0705 | 0.212 | 0.0799 | 0.00617 | 0.00712 | 0.263 | 0.338 | 0.155
7 | O=C(Nc1c[nH]nc1-c1nc2cc(CN3CCOCC3)ccc2[nH]1)NC1CC1 [AT9283] | 344 nM | 1100 nM | 456 nM | 250 nM | 100 nM | 777 nM | 241 nM | 414 nM | 1.86 | 2.63 | 2.1 | 2.05 | 1.58 | 2.74 | 1.97 | 2.22 | 0.0159 | 0.00789 | 0.0596 | 0.00945 | 0.00681 | 0.0125 | 0.0255 | 0.0418
8 | Cc1ccc(NC(=O)c2cccc(C(C)(C)C#N)c2)cc1Nc1ccc2ncn(C)c(=O)c2c1 [AZ628] | 2710 nM | > 10000 nM | 4670 nM | 4500 nM | > 10000 nM | > 10000 nM | > 10000 nM | 4380 nM | 2.84 | 3.3 | 2.48 | 3.37 | 3.21 | 3.97 | 3.42 | 3.16 | 0.276 | 0.572 | 0.425 | 0.101 | 0.719 | 0.928 | 0.706 | 0.239
9 | Cc1cc(Nc2nc(N[C@@H](C)c3ccc(F)cc3)c(C#N)cc2F)n[nH]1 [AZ 960] | 1070 nM | 1680 nM | 1840 nM | 789 nM | 259 nM | 3300 nM | 1230 nM | 628 nM | 2.48 | 2.5 | 2.44 | 2.52 | 1.57 | 2.86 | 2.51 | 2.15 | 0.129 | 0.252 | 0.133 | 0.00541 | 0.00178 | 0.391 | 0.0819 | 0.0231
10 | CNC(=O)c1cccc(-c2ccc3c(N4CCOC[C@@H]4C)nc(N4CCOC[C@@H]4C)nc3n2)c1 [AZD2014] | 120 nM | 364 nM | 145 nM | 135 nM | 23.6 nM | 936 nM | 573 nM | 246 nM | 1.61 | 2.12 | 1.67 | 1.88 | 1.18 | 2.91 | 2.29 | 1.86 | 0.0767 | 0.177 | 0.108 | 0.0166 | 0.0673 | 0.229 | 0.0959 | 0.0604
11 | COc1cc(CCc2cc(NC(=O)c3ccc(N4C[C@@H](C)N[C@@H](C)C4)cc3)n[nH]2)cc(OC)c1 [AZD4547] | 2380 nM | 5180 nM | 9570 nM | 9970 nM | 7220 nM | > 10000 nM | > 10000 nM | 1600 nM | 2.69 | 3.1 | 3.11 | 5.09 | 3.17 | 3.96 | 3.57 | 2.59 | 0.165 | 0.256 | 0.51 | 0.68 | 0.202 | 0.877 | 0.9 | 0.222
12 | Cc1ncc(-c2ccnc(Nc3ccc(S(C)(=O)=O)cc3)n2)n1C(C)C [AZD5438] | 654 nM | 1480 nM | 759 nM | 258 nM | 186 nM | 1230 nM | 910 nM | 1640 nM | 2.39 | 2.45 | 2.49 | 2.19 | 1.66 | 2.44 | 2.6 | 2.97 | 0.0146 | 0.0183 | 0.142 | 0.00721 | 0.00317 | 0.00858 | 0.0207 | 0.131
13 | Cn1cnc2c(F)c(Nc3ccc(Br)cc3Cl)c(C(=O)NOCCO)cc21 [AZD6244 (Selumetinib)] | 3000 nM | > 10000 nM | 3050 nM | > 10000 nM | 1140 nM | > 10000 nM | 3950 nM | 1660 nM | 2.59 | 2.88 | 2.45 | 4 | 2.41 | 3.06 | 2.75 | 2.51 | 0.371 | 0.664 | 0.419 | 0.728 | 0.371 | 0.59 | 0.381 | 0.23
14 | NC(=O)Nc1cc(-c2cccc(F)c2)sc1C(=O)N[C@H]1CCCNC1 [AZD7762] | 17.3 nM | 408 nM | 68.5 nM | 81.8 nM | 34 nM | 308 nM | 175 nM | 156 nM | 0.873 | 2.07 | 1.39 | 2.1 | 1.1 | 2.53 | 1.82 | 1.78 | 0.0318 | 0.00737 | 0.0208 | 0.00565 | 0.00636 | 0.0492 | 0.0526 | 0.00629
15 | COc1ccc(-c2ccc3c(N4CCOC[C@@H]4C)nc(N4CCOC[C@@H]4C)nc3n2)cc1CO [AZD8055] | 41.5 nM | 110 nM | 85.1 nM | 69.1 nM | 9.59 nM | 370 nM | 171 nM | 119 nM | 1.25 | 1.62 | 1.48 | 1.29 | 0.809 | 2.4 | 1.76 | 1.48 | 0.0903 | 0.163 | 0.0959 | 0.00497 | 0.00631 | 0.229 | 0.109 | 0.0607
16 | Cc1cc(C(=O)NOCCO)c(Nc2ccc(I)cc2F)n(C)c1=O [AZD8330] | 140 nM | 865 nM | 123 nM | > 10000 nM | 57.3 nM | > 10000 nM | 385 nM | 134 nM | 1.69 | 2.36 | 1.74 | 3.95 | 1.78 | 3.63 | 2.04 | 1.73 | 0.299 | 0.386 | 0.317 | 0.527 | 0.31 | 0.789 | 0.281 | 0.209
17 | CNC(=O)CN1CCC(Oc2cc3c(Nc4cccc(Cl)c4F)ncnc3cc2OC)CC1 [AZD8931] | 609 nM | > 10000 nM | 1210 nM | > 10000 nM | > 10000 nM | > 10000 nM | 1150 nM | > 10000 nM | 2.08 | 3.06 | 2.35 | 3.56 | 2.67 | 4.39 | 2.32 | 2.86 | 0.323 | 0.696 | 0.333 | 0.785 | 0.474 | 0.994 | 0.336 | 0.576
18 | CN(C)C/C=C/C(=O)Nc1cc2c(Nc3ccc(F)c(Cl)c3)ncnc2cc1O[C@H]1CCOC1 [Afatinib (BIBW2992)] | 162 nM | 1340 nM | 157 nM | 2610 nM | 1460 nM | 2860 nM | 298 nM | 673 nM | 1.71 | 2.37 | 1.73 | 3.72 | 2.26 | 2.87 | 1.94 | 2.18 | 0.000546 | 0.0794 | 0.0844 | 0.00799 | 0.00665 | 0.00814 | 0.0284 | 0.047
